Data: patent US8455475B2 (Gruenenthal GmbH, priority 2009, dated 2013)

Each compound was assayed against T1, rat B1R (bradykinin receptor 1) (Rattus norvegicus, UniProt P97583) (assay: FLIPR Ca2+ assay (Fluo-4) on CHO K1 cells stably transfected with the B1R gene of the rat (rB1R cells): % inhibition at 10 μM / IC50, agonist Des-Arg9-bradykinin). Conditions: CHO-K1, rat B1R.
T1 construct: expressed in transfected cells; host or cells: CHO K1 cells
T1 sequence (P97583 1-337): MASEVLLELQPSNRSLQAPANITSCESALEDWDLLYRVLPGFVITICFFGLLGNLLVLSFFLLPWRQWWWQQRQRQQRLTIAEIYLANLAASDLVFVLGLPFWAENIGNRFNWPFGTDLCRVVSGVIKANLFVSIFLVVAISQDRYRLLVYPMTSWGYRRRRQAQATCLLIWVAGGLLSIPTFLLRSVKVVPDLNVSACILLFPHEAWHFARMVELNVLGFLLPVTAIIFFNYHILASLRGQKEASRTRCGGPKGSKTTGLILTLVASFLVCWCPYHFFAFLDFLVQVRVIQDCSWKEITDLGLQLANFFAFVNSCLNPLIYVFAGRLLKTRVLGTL
Assay type: cell-based
Procedure, shortened: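 Antagonism is measured as the drop in peak Fluo-4 Ca2+ signal when the EC80 agonist follows 10–20 min compound exposure. The single-point screen uses 10 μM; IC50 uses several concentrations. Values are given as % of maximal achievable inhibition.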

inhibition at 10 µM [%]	Compound
80	O=C(NC1CCc2ccc(C(=O)N3CCC4(CCN(Cc5ccc6ncccc6c5)CC4)C3)cc21)c1cc(Cl)ccc1F (centres unmarked) [IND_CC-671, 5-Chloro-2-fluoro-N-[6-[8-(quinolin-6-yl-methyl)-2,8-diazaspiro[4.5]decane-2-carbonyl]-2,3-dihydro-1H-inden-1-yl]-benzamide]
59	O=C(NC1CCc2ccc(C(=O)N3CCC4(CCN(Cc5c(F)cccc5F)CC4)CC3)cc21)c1cc(C(F)(F)F)ccc1Cl (centres unmarked) [IND_CC-644, 2-Chloro-N-[6-[9-[(2,6-difluoro-phenyl)-methyl]-3,9-diazaspiro[5.5]undecane-3-carbonyl]-2,3-dihydro-1H-inden-1-yl]-5-(trifluoromethyl)-benzamide]
102	O=C(NC1CCc2ccc(C(=O)N3CCC4(CCN(Cc5ccc(F)cc5F)CC4)CC3)cc21)c1ccccc1Cl (centres unmarked) [IND_CC-516, 2-Chloro-N-[6-[9-[(2,4-difluoro-phenyl)-methyl]-3,9-diazaspiro[5.5]undecane-3-carbonyl]-2,3-dihydro-1H-inden-1-yl]-benzamide]
58	O=C(NC1CCc2ccc(C(=O)N3CCC4(CCN(C(=O)C5CC5)CC4)C3)cc21)c1sccc1Cl (centres unmarked) [IND_CC-582, 3-Chloro-N-[6-[8-(cyclopropanecarbonyl)-2,8-diazaspiro[4.5]decane-2-carbonyl]-2,3-dihydro-1H-inden-1-yl]-thiophene-2-carboxylic acid amide]
80	O=C(NC1CCc2ccc(C(=O)N3CCC4(CCN(CCCc5cccc(F)c5)CC4)CC3)cc21)c1cc(C(F)(F)F)ccc1Cl (centres unmarked) [IND_CC-702, 2-Chloro-N-[6-[9-[3-(3-fluorophenyl)-propyl]-3,9-diazaspiro[5.5]undecane-3-carbonyl]-2,3-dihydro-1H-inden-1-yl]-5-(trifluoromethyl)-benzamide]
52	N#Cc1ccc(CN2CCC3(CC2)CCN(C(=O)c2ccc4c(c2)C(NC(=O)c2sccc2Cl)CC4)C3)cc1 (centres unmarked) [IND_CC-569, 3-Chloro-N-[6-[8-[(4-cyano-phenyl)-methyl]-2,8-diazaspiro[4.5]decane-2-carbonyl]-2,3-dihydro-1H-inden-1-yl]-thiophene-2-carboxylic acid amide]
95	CN(C1CCc2ccc(C(=O)N3CCC4(CC3)CCN(c3ccncc3)CC4)cc21)S(=O)(=O)c1c(Cl)cccc1Cl (centres unmarked) [IND_CC-321, 2,6-Dichloro-N-methyl-N-[6-(9-pyridin-4-yl-3,9-diazaspiro[5.5]undecane-3-carbonyl)-2,3-dihydro-1H-inden-1-yl]-benzenesulfonic acid amide]
60	Cc1ccc(C(=O)NC2c3cc(C(=O)N4CCC5(CC4)CCN(c4ccncc4)CC5)ccc3CC2(C)C)c(F)c1 (centres unmarked) [IND_CC-317, N-[2,2-Dimethyl-6-(9-pyridin-4-yl-3,9-diazaspiro[5.5]undecane-3-carbonyl)-1,3-dihydro-inden-1-yl]-2-fluoro-4-methyl-benzamide]
100	COc1cc(C)c(S(=O)(=O)NC2CCc3ccc(C(=O)N4CCC5(CCN(c6ccncc6)CC5)C4)cc32)c(C)c1 (centres unmarked) [Ind_CC-087, 4-methoxy-2,6-dimethyl-N-[6-(8-pyridin-4-yl-2,8-diazaspiro[4.5]decane-2-carbonyl)-2,3-dihydro-1H-inden-1-yl]-benzenesulfonic acid amide]
55	O=C(NC1CCc2ccc(C(=O)N3CCC4(CCN(Cc5ccccn5)CC4)CC3)cc21)c1cc(Cl)ccc1F (centres unmarked) [IND_CC-626, 5-Chloro-2-fluoro-N-[6-[9-(pyridin-2-yl-methyl)-3,9-diazaspiro[5.5]undecane-3-carbonyl]-2,3-dihydro-1H-inden-1-yl]-benzamide]
67	CC1(C)Cc2ccc(C(=O)N3CCC4(CC3)CCN(c3ccncc3)CC4)cc2C1NS(=O)(=O)c1ccc(C(F)(F)F)cc1Cl (centres unmarked) [IND_CC-330, 2-Chloro-N-[2,2-dimethyl-6-(9-pyridin-4-yl-3,9-diazaspiro[5.5]undecane-3-carbonyl)-1,3-dihydro-inden-1-yl]-4-(trifluoromethyl)-benzenesulfonic acid amide]
52	Cc1noc(C)c1CN1CCC2(CC1)CCN(C(=O)c1ccc3c(c1)C(NC(=O)c1c(F)cccc1Cl)CC3)CC2 (centres unmarked) [IND_CC-799, 2-Chloro-N-[6-[9-[(3,5-dimethyl-isoxazol-4-yl)-methyl]-3,9-diazaspiro-[5.5]undecane-3-carbonyl]-2,3-dihydro-1H-inden-1-yl]-6-fluoro-benzamide]
66	COc1ccc(CN2CCC3(CC2)CCN(C(=O)c2ccc4c(c2)C(NC(=O)c2sccc2Cl)CC4)C3)cc1F (centres unmarked) [IND_CC-548, 3-Chloro-N-[6-[8-[(3-fluoro-4-methoxy-phenyl)-methyl]-2,8-diazaspiro[4.5]decane-2-carbonyl]-2,3-dihydro-1H-inden-1-yl]-thiophene-2-carboxylic acid amide]
105	CCC(CC)CN1CCC2(CC1)CCN(C(=O)c1ccc3c(c1)C(NC(=O)c1c(F)cccc1Cl)CC3)C2 (centres unmarked) [IND_CC-778, 2-Chloro-N-[6-[8-(2-ethyl-butyl)-2,8-diazaspiro[4.5]decane-2-carbonyl]-2,3-dihydro-1H-inden-1-yl]-6-fluoro-benzamide]
75	N#Cc1ccc(CN2CCC3(CC2)CCN(C(=O)c2ccc4c(c2)C(N(C(=O)c2ccccc2Cl)C2CC2)CC4)C3)cc1 (centres unmarked) [IND_CC-539, 2-Chloro-N-[6-[8-[(4-cyano-phenyl)-methyl]-2,8-diazaspiro[4.5]decane-2-carbonyl]-2,3-dihydro-1H-inden-1-yl]-N-cyclopropyl-benzamide]
74	N#Cc1ccc(CN2CCC3(CC2)CCN(C(=O)c2ccc4c(c2)C(NC(=O)c2ccccc2Cl)CC4)CC3)cc1 (centres unmarked) [IND_CC-533, 2-Chloro-N-[6-[9-[(4-cyano-phenyl)-methyl]-3,9-diazaspiro[5.5]undecane-3-carbonyl]-2,3-dihydro-1H-inden-1-yl]-benzamide]
81	Cc1nn(C)c(C)c1CN1CCC2(CC1)CCN(C(=O)c1ccc3c(c1)C(NC(=O)c1ccccc1Cl)CC3)C2 (centres unmarked) [IND_CC-564, 2-Chloro-N-[6-[8-[(1,3,5-trimethyl-1H-pyrazol-4-yl)-methyl]-2,8-diazaspiro[4.5]decane-2-carbonyl]-2,3-dihydro-1H-inden-1-yl]-benzamide]
103	O=C(NC1CCc2ccc(C(=O)N3CCC4(CC3)CCN(c3ccncc3)CC4)cc21)c1ccc(F)cc1C(F)(F)F (centres unmarked) [IND_CC-379, 4-Fluoro-N-[6-(9-pyridin-4-yl-3,9-diazaspiro[5.5]undecane-3-carbonyl)-2,3-dihydro-1H-inden-1-yl]-2-(trifluoromethyl)-benzamide]
79	O=C(NC1CCc2ccc(C(=O)N3CCC4(CCN(C(=O)c5ccc(F)cc5F)CC4)C3)cc21)c1ccccc1Cl (centres unmarked) [IND_CC-576, 2-Chloro-N-[6-[8-(2,4-difluoro-benzoyl)-2,8-diazaspiro[4.5]decane-2-carbonyl]-2,3-dihydro-1H-inden-1-yl]-benzamide]
101	O=C(NC1CCc2ccc(C(=O)N3CCC4(CCN(CCc5ccccc5)CC4)C3)cc21)c1c(F)cccc1Cl (centres unmarked) [IND_CC-780, 2-Chloro-6-fluoro-N-[6-(8-phenethyl-2,8-diazaspiro[4.5]decane-2-carbonyl)-2,3-dihydro-1H-inden-1-yl]-benzamide]
56	O=C(NC1CCc2ccc(C(=O)N3CCC4(CCN(Cc5c(F)cccc5Cl)CC4)C3)cc21)c1cccc(Cl)c1Cl (centres unmarked) [IND_CC-725, 2,3-Dichloro-N-[6-[8-[(2-chloro-6-fluoro-phenyl)-methyl]-2,8-diazaspiro[4.5]decane-2-carbonyl]-2,3-dihydro-1H-inden-1-yl]-benzamide]
104	CN(C(=O)c1c(F)cccc1F)C1CCc2ccc(C(=O)N3CCC4(CC3)CCN(c3ccncc3)CC4)cc21 (centres unmarked) [IND_CC-384, 2,6-Difluoro-N-methyl-N-[6-(9-pyridin-4-yl-3,9-diazaspiro[5.5]undecane-3-carbonyl)-2,3-dihydro-1H-inden-1-yl]-benzamide]
98	O=C(c1ccc2c(c1)C(NS(=O)(=O)Cc1cccc(Cl)c1)CC2)N1CCC2(CC1)CCN(c1ccncc1)CC2 (centres unmarked) [IND_CC-352, 1-(3-Chlorophenyl)-N-[6-(9-pyridin-4-yl-3,9-diazaspiro[5.5]undecane-3-carbonyl)-2,3-dihydro-1H-inden-1-yl]-methanesulfonic acid amide]
100	Cc1ccc(C(=O)NC2CC(C)(C)c3ccc(C(=O)N4CCC5(CC4)CCN(c4ccncc4)CC5)cc32)c(F)c1 (centres unmarked) [IND_CC-318, N-[3,3-Dimethyl-6-(3-pyridin-4-yl-3,9-diazaspiro[5.5]undecane-9-carbonyl)-1,2-dihydro-inden-1-yl]-2-fluoro-4-methyl-benzamide]
99	CN(C1CCc2ccc(C(=O)N3CCC4(CC3)CCN(c3ccncc3)CC4)cc21)S(=O)(=O)Cc1cccc(Cl)c1 (centres unmarked) [IND_CC-351, 1-(3-Chlorophenyl)-N-methyl-N-[6-(9-pyridin-4-yl-3,9-diazaspiro[5.5]undecane-3-carbonyl)-2,3-dihydro-1H-inden-1-yl]-methanesulfonic acid amide]
79	CCC(CC)CN1CCC2(CC1)CCN(C(=O)c1ccc3c(c1)C(NC(=O)c1c(C)cccc1Cl)CC3)C2 (centres unmarked) [IND_CC-768, 2-Chloro-N-[6-[8-(2-ethyl-butyl)-2,8-diazaspiro[4.5]decane-2-carbonyl]-2,3-dihydro-1H-inden-1-yl]-6-methyl-benzamide]
